Experimental data as given in PubChem BioAssay AID1963451 (Molecular Pharmacology Branch, DTP, NCI, 2024).

Tested on: 521955-158-R6-J3-PDC complex spheroid growth, % test/control
Test: Anticancer human tumor 521955-158-R6-J3-PDC patient-derived pancreatic carcinoma cell line growth inhibition [Asc]
Conditions: for IC50: curve of first compound; for viability, T/C: stronger effect = lower value
In short: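 Complex solid-tumor spheroids incorporating human endothelial and mesenchymal stem cells received single agents or combinations over half-log dilution ranges anchored to clinical Cmax.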

[1] = second compound 0.0316 µM, first compound 0.0316 µM
[2] = second compound 0.0316 µM, first compound 0.1 µM
[3] = second compound 0.0316 µM, first compound 0.316 µM
[4] = second compound 0.0316 µM, first compound 1 µM
[5] = second compound 0.1 µM, first compound 0.0316 µM
[6] = second compound 0.1 µM, first compound 0.1 µM
[7] = second compound 0.1 µM, first compound 0.316 µM
[8] = second compound 0.1 µM, first compound 1 µM
[9] = second compound 0.316 µM, first compound 0.0316 µM
[10] = second compound 0.316 µM, first compound 0.1 µM
[11] = second compound 0.316 µM, first compound 0.316 µM
[12] = second compound 0.316 µM, first compound 1 µM
[13] = second compound 1 µM, first compound 0.0316 µM
[14] = second compound 1 µM, first compound 0.1 µM
[15] = second compound 1 µM, first compound 0.316 µM
[16] = second compound 1 µM, first compound 1 µM
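Further: spheroids exposed to compounds for 7 days.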
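Wherever viability, T/C is given: 100% = DMSO vehicle control wells.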

## C#Cc1c(F)ccc2cc(O)cc(-c3ncc4c(N5CC6CCC(C5)N6)nc(OCC56CCCN5CC(F)C6)nc4c3F)c12 (centres undefined) + Cc1c(S(C)(=O)=O)c(-c2cc(F)cc(N3CCN(c4ccc(NS(=O)(=O)c5ccc(NC(CCN6CCC(C(=O)OCCCP(=O)(O)O)CC6)CSc6ccccc6)c(S(=O)(=O)C(F)(F)F)c5)cc4)CC3)c2)c(-c2ccc(Cl)cc2)n1C(C)C
Second compound 0.0316 µM
  IC50: < 31.6 nM
Second compound 0.1 µM
  IC50: < 31.6 nM
Second compound 0.316 µM
  IC50: < 31.6 nM
Second compound 1 µM
  IC50: < 31.6 nM
Second compound 3.16 µM
  IC50: < 31.6 nM
Second compound 10 µM
  IC50: < 31.6 nM
[1]
  viability, T/C: 49.8%
[2]
  viability, T/C: 44.9%
[3]
  viability, T/C: 23.1%
[4]
  viability, T/C: 24%
Second compound 0.0316 µM, first compound 3.16 µM
  viability, T/C: 18.4%
Second compound 0.0316 µM, first compound 10 µM
  viability, T/C: 15.9%
[5]
  viability, T/C: 46.2%
[6]
  viability, T/C: 31.1%
[7]
  viability, T/C: 23.3%
[8]
  viability, T/C: 18.4%
Second compound 0.1 µM, first compound 3.16 µM
  viability, T/C: 17.8%
Second compound 0.1 µM, first compound 10 µM
  viability, T/C: 17.1%
[9]
  viability, T/C: 31.6%
[10]
  viability, T/C: 34.9%
[11]
  viability, T/C: 15.9%
[12]
  viability, T/C: 15.6%
Second compound 0.316 µM, first compound 3.16 µM
  viability, T/C: 11.6%
Second compound 0.316 µM, first compound 10 µM
  viability, T/C: 9.78%
[13]
  viability, T/C: 16.1%
[14]
  viability, T/C: 15.3%
[15]
  viability, T/C: 11.9%
[16]
  viability, T/C: 9.24%
Second compound 1 µM, first compound 3.16 µM
  viability, T/C: 7.76%
Second compound 1 µM, first compound 10 µM
  viability, T/C: 7.16%
Second compound 3.16 µM, first compound 0.0316 µM
  viability, T/C: 12.6%
Second compound 3.16 µM, first compound 0.1 µM
  viability, T/C: 11.4%
Second compound 3.16 µM, first compound 0.316 µM
  viability, T/C: 7.77%
Second compound 3.16 µM, first compound 1 µM
  viability, T/C: 7.76%
Second compound 3.16 µM, first compound 3.16 µM
  viability, T/C: 6.82%
Second compound 3.16 µM, first compound 10 µM
  viability, T/C: 3.79%
Second compound 10 µM, first compound 0.0316 µM
  viability, T/C: 8.21%
Second compound 10 µM, first compound 0.1 µM
  viability, T/C: 6.93%
Second compound 10 µM, first compound 0.316 µM
  viability, T/C: 5%
Second compound 10 µM, first compound 1 µM
  viability, T/C: 5.16%
Second compound 10 µM, first compound 3.16 µM
  viability, T/C: 3.49%
Second compound 10 µM, first compound 10 µM
  viability, T/C: 3.88%

## CCN1CCN(Cc2ccc(Nc3ncc(F)c(-c4cc(F)c5nc(C)n(C(C)C)c5c4)n3)nc2)CC1 + CNC(C)C(=O)NC1CN(S(=O)(=O)c2cccc(S(=O)(=O)N3CCC4CCC(C(=O)NC(c5ccccc5)c5ccccc5)N4C(=O)C(NC(=O)C(C)NC)C3)c2)CCC2CCC(C(=O)NC(c3ccccc3)c3ccccc3)N2C1=O
Second compound 0.00316 µM
  IC50: > 1000 nM
Second compound 0.01 µM
  IC50: > 1000 nM
Second compound 0.0316 µM
  IC50: > 1000 nM
Second compound 0.1 µM
  IC50: > 1000 nM
Second compound 0.316 µM
  IC50: > 1000 nM
Second compound 1 µM
  IC50: > 1000 nM
Second compound 0.00316 µM, first compound 0.00316 µM
  viability, T/C: 174%
Second compound 0.00316 µM, first compound 0.01 µM
  viability, T/C: 141%
Second compound 0.00316 µM, first compound 0.0316 µM
  viability, T/C: 140%
Second compound 0.00316 µM, first compound 0.1 µM
  viability, T/C: 153%
Second compound 0.00316 µM, first compound 0.316 µM
  viability, T/C: 136%
Second compound 0.00316 µM, first compound 1 µM
  viability, T/C: 120%
Second compound 0.01 µM, first compound 0.00316 µM
  viability, T/C: 94.2%
Second compound 0.01 µM, first compound 0.01 µM
  viability, T/C: 76.4%
Second compound 0.01 µM, first compound 0.0316 µM
  viability, T/C: 86.1%
Second compound 0.01 µM, first compound 0.1 µM
  viability, T/C: 75.9%
Second compound 0.01 µM, first compound 0.316 µM
  viability, T/C: 74.9%
Second compound 0.01 µM, first compound 1 µM
  viability, T/C: 86.4%
Second compound 0.0316 µM, first compound 0.00316 µM
  viability, T/C: 103%
Second compound 0.0316 µM, first compound 0.01 µM
  viability, T/C: 82.1%
[1]
  viability, T/C: 73.6%
[2]
  viability, T/C: 83.4%
[3]
  viability, T/C: 83.6%
[4]
  viability, T/C: 92.1%
Second compound 0.1 µM, first compound 0.00316 µM
  viability, T/C: 107%
Second compound 0.1 µM, first compound 0.01 µM
  viability, T/C: 114%
[5]
  viability, T/C: 102%
[6]
  viability, T/C: 75.9%
[7]
  viability, T/C: 88.2%
[8]
  viability, T/C: 100%
Second compound 0.316 µM, first compound 0.00316 µM
  viability, T/C: 87.4%
Second compound 0.316 µM, first compound 0.01 µM
  viability, T/C: 78.8%
[9]
  viability, T/C: 71%
[10]
  viability, T/C: 66.5%
[11]
  viability, T/C: 67.1%
[12]
  viability, T/C: 71%
Second compound 1 µM, first compound 0.00316 µM
  viability, T/C: 86.3%
Second compound 1 µM, first compound 0.01 µM
  viability, T/C: 81.3%
[13]
  viability, T/C: 71.8%
[14]
  viability, T/C: 72.8%
[15]
  viability, T/C: 77.3%
[16]
  viability, T/C: 83.9%
